How the values were obtained:
KURAMOCHI = assay: drug sensitivity score (DSS2) on cancer cell count; higher = more sensitive; extreme values may be limits of the assay; settings: 72 h
How it was run: (§1)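 Ovarian cancer cells were grown alone or in 1:1 direct co-culture with lung or skin fibroblasts. They were plated onto 384-well plates pre-spotted acoustically with 528 approved and investigational compounds at 5 concentrations, then treated for 72 h. Cells were fixed, immunostained for CK8/18 with Hoechst, and imaged at 10× (4 fields) to count cancer cells. A drug sensitivity score (DSS2) was derived in Breeze from 4-parameter logistic fits, with screen quality checked by Z'.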

OVCAR8 = assay: as above; settings: 72 h
How it was run: as §1

[1] = co-cultured fibroblast: BJHTERT
[2] = co-cultured fibroblast: none (monoculture)

| SMILES | drug sensitivity score (KURAMOCHI; [1]) [DSS] | drug sensitivity score (KURAMOCHI; co-cultured fibroblast: WI38) [DSS] | drug sensitivity score (KURAMOCHI; [2]) [DSS] | drug sensitivity score (OVCAR8; [1]) [DSS] | drug sensitivity score (OVCAR8; co-cultured fibroblast: WI38) [DSS] | drug sensitivity score (OVCAR8; [2]) [DSS] |
| --- | --- | --- | --- | --- | --- | --- |
| COc1ccc(Cn2ccc3ccc(C(=O)NO)cc32)cc1 | 6.6 | 2.3 | 3.2 | 2.5 | 0.7 | 3 |
| C[C@@]1(C(=O)Nc2ccc(F)nc2)CCCN1c1nc(Nc2cc(C3CC3)n[nH]2)c2cccn2n1 | 13.3 | 5.5 | 10.8 | 11.6 | 13 | 14 |
| COc1cccc2c1C(=O)c1c(O)c3c(c(O)c1C2=O)C[C@@](O)(C(=O)CO)C[C@@H]3O[C@H]1C[C@H](N)[C@@H](O)[C@H](C)O1 [Epirubicin] | 12.2 | 12.7 | 19.2 | 14.7 | 9 | 12.3 |
| Cc1cnc(Nc2ccc(OCCN3CCCC3)cc2)nc1Nc1cccc(S(=O)(=O)NC(C)(C)C)c1 [Fedratinib] | 7.9 | 3.7 | 2.8 | 4.9 | 5.2 | 7.2 |
| CC(C)C[C@H](NC(=O)[C@H](CCc1ccccc1)NC(=O)CN1CCOCC1)C(=O)N[C@@H](Cc1ccccc1)C(=O)N[C@@H](CC(C)C)C(=O)[C@@]1(C)CO1 [Carfilzomib] | 21.8 | 23.4 | 22.6 | 26.2 | 18 | 17.8 |
| CC(C)NC[C@@H](C(=O)N1CCN(c2ncnc3c2[C@H](C)C[C@H]3O)CC1)c1ccc(Cl)cc1 [Ipatasertib] | 1.5 | 0.5 | 0 | 1.9 | 0 | 1.9 |
| CNC(=O)c1cccc2cc(Oc3ccnc4cc(OCC5(N)CC5)c(OC)cc34)ccc12 [Lucitanib] | 4.3 | 4.3 | 2.4 | 3.3 | 6 | 3.4 |
| COCCNCc1ccc(-c2cc3nccc(Oc4ccc(NC(=O)C5(C(=O)Nc6ccc(F)cc6)CC5)cc4F)c3s2)nc1 [Sitravatinib] | 3.1 | 5.8 | 0 | 0 | 1.6 | 1.8 |
| Cc1[nH]nc(C(F)(F)F)c1Cc1sc2c(c1C(=O)N1C[C@](C)(O)CO1)c(=O)n(C)c(=O)n2C(C)C [AZD3965] | 0 | 1.7 | 0 | 0 | 0 | 0 |
| N#CC[C@H](C1CCCC1)n1cc(-c2ncnc3[nH]ccc23)cn1 [Ruxolitinib] | 0 | 0 | 0 | 1.3 | 2.7 | 2.5 |
| O=C(c1ccc(F)c(F)c1Nc1ccc(I)cc1F)N1CC(O)([C@@H]2CCCCN2)C1 [Cobimetinib] | 11.5 | 6.4 | 7.2 | 8.4 | 2.1 | 9.6 |
| COc1cccc2c1C(=O)c1c(O)c3c(c(O)c1C2=O)C[C@@](O)(C(C)=O)C[C@@H]3O[C@H]1C[C@H](N)[C@H](O)[C@H](C)O1 [Daunorubicin] | 11.9 | 14.6 | 13.9 | 14.7 | 15.9 | 15.1 |
| CCN(CC)CCOc1ccc(C(=C(Cl)c2ccccc2)c2ccccc2)cc1 [Clomifene] | 3.7 | 5.6 | 7.9 | 4.3 | 10.1 | 1.9 |
| Cc1cc(F)c(C(=O)Nc2cccc(-c3nncn3C(C)C)n2)cc1-n1cnc(C2CC2)c1 [Selonsertib] | 0 | 0 | 0 | 0 | 0 | 0 |
| CC(=O)[C@]1(O)Cc2c(O)c3c(c(O)c2[C@@H](O[C@H]2C[C@H](N)[C@H](O)[C@H](C)O2)C1)C(=O)c1ccccc1C3=O [Idarubicin] | 14.5 | 14.4 | 27.8 | 17.6 | 19.3 | 22.1 |
| NC(=S)N/N=C/c1ncccc1N [Triapine] | 4.5 | 6.3 | 8.2 | 5.2 | 9.3 | 8.7 |
| Clc1ccc(C(c2ccccc2Cl)C(Cl)Cl)cc1 (stereo not drawn) [Mitotane] | 0 | 0 | 0 | 0 | 0 | 0 |
| Cc1cc(OCc2nnc(SC3CCCC3)n2-c2cccnc2)ccc1-c1ccc(S(C)(=O)=O)cc1 [NMS-873] | 9 | 9 | 8.9 | 5.8 | 4.7 | 10.3 |
| COc1cc2c(cc1-c1c(C)noc1C)ncc1[nH]c(=O)n([C@H](C)c3ccccn3)c12 [I-BET151] | 9.5 | 9.4 | 6.3 | 14.1 | 4 | 15.9 |

| SMILES | drug sensitivity score (KURAMOCHI; [1]) [DSS] | drug sensitivity score (KURAMOCHI; co-cultured fibroblast: WI38) [DSS] | drug sensitivity score (KURAMOCHI; [2]) [DSS] | drug sensitivity score (OVCAR8; [1]) [DSS] | drug sensitivity score (OVCAR8; co-cultured fibroblast: WI38) [DSS] | drug sensitivity score (OVCAR8; [2]) [DSS] |
| --- | --- | --- | --- | --- | --- | --- |
| CC(=O)OC[C@H]1O[C@@H]([S-])[C@H](OC(C)=O)[C@@H](OC(C)=O)[C@@H]1OC(C)=O.CCP(CC)CC.[Au+] [Auranofin] | 9.3 | 7 | 8.1 | 12.1 | 8.8 | 7.3 |
| COC(=O)c1ccc2c(c1)NC(=O)/C2=C(\Nc1ccc(N(C)C(=O)CN2CCN(C)CC2)cc1)c1ccccc1 [Nintedanib] | 8.2 | 2.7 | 4.6 | 9.8 | 4.6 | 7.9 |
| O=C(NCc1ccncc1)C12CC3CC(C1)CC(c1ccc(Cl)cc1)(C3)C2 | 5.8 | 5.6 | 3.7 | 3.9 | 3.6 | 5 |
| COc1cc2nccc(Oc3ccc(NC(=O)C4(C(=O)Nc5ccc(F)cc5)CC4)cc3)c2cc1OC [Cabozantinib] | 0.4 | 0 | 0 | 0 | 0.2 | 4.4 |
| CC1(C)OCCn2c1nc1c(N3CCOCC3)nc(-c3cnc(N)nc3)nc12 [GDC-0084] | 12.7 | 11.5 | 12.1 | 8.3 | 3.8 | 11.9 |
| Oc1ncnc2[nH]ncc12 [Allopurinol] | 0 | 0 | 0 | 0 | 0 | 0 |
| COc1ccc(S(=O)(=O)Nc2cccnc2Nc2ccc(O)cc2)cc1 [ABT-751] | 14.5 | 17.3 | 17.9 | 18.7 | 15.9 | 19.3 |
| O=C(Nc1ccc2[nH]nc(-c3ccncc3)c2c1)[C@@H]1CCN(CC(=O)N2CCN(c3ccc(-c4ncccn4)cc3)CC2)C1 | 13.5 | 12.4 | 15.5 | 16.6 | 10.2 | 15.5 |
| CC[C@@](C)(Nc1ccnc(-c2c[nH]c3ncccc23)n1)C(=O)NCC(F)(F)F [Decernotinib] | 0 | 3.3 | 0 | 0 | 0 | 0 |
| Cc1ccc(-c2cc(C(F)(F)F)nn2-c2ccc(S(N)(=O)=O)cc2)cc1 [Celecoxib] | 0 | 0 | 0.5 | 0.1 | 0 | 0.1 |
| CNc1ncc2cc(-c3cc(NC(=O)NCCC(C)(C)C)c(F)cc3C)c(C)nc2n1 | 12.7 | 10.2 | 9.9 | 13.1 | 15.7 | 14.7 |
| Cc1ccc(C(=O)N(CCCN)[C@@H](c2oc3cc(Cl)ccc3c(=O)c2Cc2ccccc2)C(C)C)cc1 | 8.3 | 17.2 | 14.6 | 5.2 | 7.6 | 29.1 |
| C[C@@H]1C=C2C(=O)O[C@@H]3CC[C@H](C1)[C@]23O [Galiellalactone] | 6.9 | 8.2 | 3.5 | 0 | 3.9 | 0 |
| CC[C@]1(O)C[C@@H]2CN(CCc3c([nH]c4ccccc34)[C@@](C(=O)OC)(c3cc4c(cc3OC)N(C)[C@H]3[C@@](O)(C(=O)OC)[C@H](OC(C)=O)[C@]5(CC)C=CCN6CC[C@]43[C@@H]65)C2)C1 [Vinblastine] | 4.9 | 4.2 | 20.8 | 18.9 | 5.2 | 15.7 |
| CCc1cnn2c(NCc3ccc[n+]([O-])c3)cc(N3CCCC[C@H]3CCO)nc12 [Dinaciclib] | 17.2 | 23.9 | 23 | 26.4 | 17.1 | 23.1 |
| C1=N/C2=N/c3ccc(OCCN4CCCC4)c(c3)COC/C=C/COCc3cccc(c3)C(=C1)N2 [Pacritinib] | 8.2 | 8.6 | 4.4 | 9.5 | 5.6 | 7.7 |
| NC(=O)c1cccc(-c2cccc(OC(=O)NC3CCCCC3)c2)c1 [URB597] | 0 | 0 | 0 | 0 | 0 | 0 |
| CO[C@H]1C[C@@H]2CC[C@@H](C)[C@@](O)(O2)C(=O)C(=O)N2CCCC[C@H]2C(=O)O[C@H]([C@H](C)C[C@@H]2CC[C@@H](OP(C)(C)=O)[C@H](OC)C2)CC(=O)[C@H](C)/C=C(\C)[C@@H](O)[C@@H](OC)C(=O)[C@H](C)C[C@H](C)/C=C/C=C/C=C/1C [Ridaforolimus] | 11.6 | 13.4 | 8.1 | 7.1 | 0 | 9.8 |
| COc1cc(N2CCC(N3CCN(C)CC3)CC2)ccc1Nc1ncnc(Nc2ccccc2S(=O)(=O)C(C)C)n1 [ASP3026] | 7.7 | 2 | 5.7 | 8.6 | 3.1 | 4.7 |
